# Laboratory results reported in US8211903B2, “Substituted pyrimido isoquinoline derivatives” (Mitsubishi Tanabe Pharma Corporation, priority 2008, dated 2012).
# pIC50: −log10 of the molar value. Where a name gives a salt, the structure may show the parent alone.
# System: not given
# Test: not given
# Settings: not given
row,melting point [°C],SMILES
1,270 to 272,"O=c1cc(-c2ccncc2)nc2c3cccc([N+](=O)[O-])c3ccn12 (as salt: hydrochloride) [compound 4, 8-Nitro-2-pyridin-4-yl-pyrimido[2,1-a]isoquinolin-4-one]"
2,329 to 331,"Nc1cccc2c1ccn1c(=O)cc(-c3ccncc3)nc21 [compound 5, 8-Amino-2-pyridin-4-yl-pyrimido[2,1-a]isoquinolin-4-one]"

# The next lines start with the compound.
row,SMILES,melting point [°C]
1,"O=c1cc(-c2ccncc2)nc2c3cc(O)ccc3ccn12 (as salt: oxalate) [compound 6, 10-Hydroxy-2-pyridin-4-yl-pyrimido[2,1-a]isoquinolin-4-one]",368 to 370
2,"COc1cc2c(cc1OC)-c1nc(-c3ccncc3)cc(=O)n1CC2 [compound 9, 9,10-Dimethoxy-2-pyridin-4-yl-6,7-dihydro-pyrimido[2,1-a]isoquinolin-4-one]",271 to 273
3,"COc1ccc2ccn3c(=O)cc(-c4ccncn4)nc3c2c1 [compound 7, 10-Methoxy-2-pyrimidin-4-yl-pyrimido[2,1-a]isoquinolin-4-one]",302 to 304

# Target: GSK3β (Homo sapiens, UniProt P49841)
# Test: Inhibitory activity against GSK3β (33P-ATP phosphorylation of prephosphorylated GS1 peptide)
# Type: biochemical
# Settings: protocol 3: 7.5 μM GS1 peptide, 10 μM ATP, 50 mM Hepes pH 7.2, one hour at room temperature
# Method: Four different protocols can be used.
# In a first protocol: 7.5 μM of prephosphorylated GS1 peptide and 10 μM ATP (containing 300,000 cpm of ^33P-ATP) were incubated in 25 mM Tris-HCl, pH 7.5, 0.6 mM DTT, 6 mM MgCl2, 0.6 mM EGTA, 0.05 mg/ml BSA buffer for 1 hour at room temperature in the presence of GSK3beta (total reaction volume: 100 microliters).
# In a second protocol: 4.1 μM of prephosphorylated GS1 peptide and 42 μM ATP (containing 260,000 cpm ^33P-ATP) were incubated in 80 mM Mes-NaOH, pH 6.5, 1 mM Mg acetate, 0.5 mM EGTA, 5 mM 2-mercaptoethanol, 0.02% Tween 20, 10% glycerol buffer for 2 hours at room temperature in the presence of GSK3beta.
# In a third protocol: 7.5 μM of prephosphorylated GS1 peptide and 10 μM ATP (containing 300,000 cpm of ^33P-ATP) were incubated in 50 mM Hepes, pH 7.2, 1 mM DTT, 1 mM MgCl2, 1 mM EGTA, 0.01% Tween 20 buffer for one hour at room temperature in the presence of GSK3beta (total reaction volume: 100 microliters). […]
# The reaction was stopped with 100 microliters of a solution made of 25 g polyphosphoric acid (85% P2O5), 126 ml 85% H3PO4, H2O to 500 ml and then diluted to 1:100 before use. […] Incorporated ^33P radioactivity was determined by liquid scintillation spectrometry. […]
# GSK3β, sequence (P49841 whole entry): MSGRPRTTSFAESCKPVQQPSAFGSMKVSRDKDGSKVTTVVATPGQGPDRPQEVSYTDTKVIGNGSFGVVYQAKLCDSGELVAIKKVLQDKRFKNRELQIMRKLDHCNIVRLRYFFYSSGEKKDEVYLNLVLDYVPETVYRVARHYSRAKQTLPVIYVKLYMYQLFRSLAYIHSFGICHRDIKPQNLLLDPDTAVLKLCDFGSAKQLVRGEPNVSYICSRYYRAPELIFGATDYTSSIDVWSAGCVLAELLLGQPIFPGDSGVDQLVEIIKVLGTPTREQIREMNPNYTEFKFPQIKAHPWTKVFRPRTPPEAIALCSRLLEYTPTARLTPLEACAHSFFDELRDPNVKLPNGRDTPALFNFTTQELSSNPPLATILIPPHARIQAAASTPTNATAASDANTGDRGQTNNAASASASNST
row,pIC50,SMILES
1,6.48,"O=c1cc(-c2ccncc2)nc2c3ccccc3ccn12 [compound 1, 2-Pyridin-4-yl-pyrimido[2,1-a]isoquinolin-4-one]"
2,6.77,"Nc1cccc2c1ccn1c(=O)cc(-c3ccncc3)nc21 [compound 5, 8-Amino-2-pyridin-4-yl-pyrimido[2,1-a]isoquinolin-4-one]"
